Results published in paper PMC10976173, “Synthesis of 5-Benzylamino and 5-Alkylamino-Substituted Pyrimido[4,5-c]quinoline Derivatives as CSNK2A Inhibitors with Antiviral Activity” (Pharmaceuticals, 2024).
Values after ≈ are worked out from the molar mass of the structure shown.

Tests used:
CSNK2A (CSNK2A2-NLuc) = biological target: T1, CSNK2A (CSNK2A2-NLuc) (Homo sapiens, UniProt P19784); assay: In-cell CSNK2A target engagement by NanoBRET assay; type: cell-based; conditions: for IC50: In-cell target engagement by NanoBRET assay, HEK293 cells; for Designation: active / inactive analogs with 10-fold differences in IC50; for fold increase in CSNK2A potency: compared to 4q; for fold decrease in CSNK2A potency: compared to the parent compounds (4s and 4w)
T1 construct: expressed in transfected cells; host or cells: HEK293
Protocol: A transfection complex of DNA at 10 µg/mL was created, consisting of 9 µg/mL of carrier DNA (Promega, Madison, WI, USA) and 1 µg/mL of CSNK2A2-NLuc fusion DNA in Opti-MEM without serum (Gibco). FuGENE HD (Promega) was added at 30 µL/mL to form a lipid/DNA complex. The solution was then mixed and incubated at room temperature for 20 min. […] The following day, the media was removed via aspiration and replaced with 85 μL of Opti-MEM without phenol red. A total of 5 μL per well of 20×-NanoBRET Tracer K10 (Promega) at 5 μM in Tracer Dilution Buffer (Promega N291B) was added to all wells, except the “no tracer” control wells. Test compounds (10 mM in DMSO) were diluted 100× in Opti-MEM media to prepare stock solutions and evaluated at eleven concentrations. A total of 10 μL per well of the 10-fold test compound stock solutions (final assay concentration of 0.1% DMSO) was added. […] 96-well plates containing cells with NanoBRET Tracer K10 and test compounds (100 µL total volume per well) were equilibrated (37 °C/5% CO2) for 2 h. The plates were cooled to room temperature for 15 min. […] A total of 50 μL of the 3× substrate/extracellular NL inhibitor were added to each well. The plates were read within 30 min on a GloMax Discover luminometer (Promega) equipped with 450 nm BP filter (donor) and 600 nm LP filter (acceptor) using 0.3 s integration time. Raw milliBRET (mBRET) values were obtained by dividing the acceptor emission values (600 nm) by the donor emission values (450 nm) and multiplying by 1000. […] The data were first normalized and then fit using Sigmoidal, 4PL binding curve in GraphPad Prism version 9.5.1 to determine IC50 values (Figure S1).

[1] = Kinetic solubility in PBS pH 7.4; type: physicochemical; conditions: phosphate-buffered saline, pH 7.4, aqueous buffer, kinetic from dmso stock, PBS pH 7.4, 24 h
Protocol: Kinetic solubility assay was conducted using 10 mM DMSO stocks of compounds in phosphate-buffered saline solution (PBS) at pH 7.4 by Analiza, Inc., Cleveland, OH, USA. […] The calculated values were corrected for the background nitrogen in the media and DMSO.

[2] = test system: Mouse Hepatitis Virus (MHV); assay: microbe, parasite or virus in culture; type: cell-based; conditions: Murine coronavirus; Inhibition of MHV-NLuc in DBT cells; read-out: MHV IC50
Protocol: DBT cells were plated in 96-well plates to be 80% confluent at the start of the assay. Test compounds were diluted to 30 µM in DMEM. […] Molnupiravir (10 µM) was included as a positive control. […] After 1 h, MHV-NLuc was added at an MOI of 0.1 in 50 μL DMEM so that the final concentration of the first dilution of compound was 30 μM (T = 0). After 10 h, the media was aspirated, and the cells were washed with PBS and lysed with passive lysis buffer (Promega) for 20 min at room temperature. Relative light units (RLUs) were measured using a luminometer (Promega; GloMax). Triplicate data were analyzed in GraphPad Prism version 9.5.1 to generate IC50 values (Figure S2).

T1 sequence (P19784 whole entry): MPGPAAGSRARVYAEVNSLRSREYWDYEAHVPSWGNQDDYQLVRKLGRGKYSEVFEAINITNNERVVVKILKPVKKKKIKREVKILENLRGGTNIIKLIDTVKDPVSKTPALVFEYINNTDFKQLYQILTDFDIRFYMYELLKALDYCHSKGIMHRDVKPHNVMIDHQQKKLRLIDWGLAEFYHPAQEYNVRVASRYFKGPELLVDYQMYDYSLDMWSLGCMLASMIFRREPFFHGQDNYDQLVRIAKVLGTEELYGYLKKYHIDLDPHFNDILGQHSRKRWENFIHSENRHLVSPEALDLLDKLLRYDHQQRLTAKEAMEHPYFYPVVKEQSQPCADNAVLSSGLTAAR

| SMILES | IC50 (CSNK2A (CSNK2A2-NLuc)) | solubility at 24 h [1] | melting point | IC50 [2] | Designation (CSNK2A (CSNK2A2-NLuc)) | fold less active on CSNK2A (CSNK2A (CSNK2A2-NLuc); compared to unmethylated parent amine 4t) | fold increase in CSNK2A potency (CSNK2A (CSNK2A2-NLuc)) | fold decrease in CSNK2A potency (CSNK2A (CSNK2A2-NLuc)) |
| --- | --- | --- | --- | --- | --- | --- | --- | --- |
| O=C(O)c1ccc2c(c1)nc(NCc1ccccc1Cl)c1ncncc12 [Compound 4a, 5-((2-chlorobenzyl)amino)pyrimido[4,5-c]quinoline-8-carboxylic acid] | 290 nM | 140 µM (≈ 51.1 µg/mL) | 193 to 198 °C |  |  |  |  |  |
| O=C(O)c1ccc2c(c1)nc(NCC1CCC(F)(F)CC1)c1ncncc12 [Compound 4aa, 5-(((4,4-difluorocyclohexyl)methyl)amino)pyrimido[4,5-c]quinoline-8-carboxylic acid] | 190 nM | 180 µM (≈ 67 µg/mL) | 288 to 291 °C | 10000 nM |  |  |  |  |
| CN1CCC(CNc2nc3cc(C(=O)O)ccc3c3cncnc23)CC1 [Compound 4ab, 5-(((1-methylpiperidin-4-yl)methyl)amino)pyrimido[4,5-c]quinoline-8-carboxylic acid] | 48700 nM | 220 µM (≈ 77.3 µg/mL) | 205 to 208 °C |  |  |  |  |  |
| CN(Cc1ccccc1)c1nc2cc(C(=O)O)ccc2c2cncnc12 [Compound 4ac, 5-(benzyl(methyl)amino)pyrimido[4,5-c]quinoline-8-carboxylic acid] | 250 nM | 180 µM (≈ 62 µg/mL) | 200 to 204 °C |  | Active |  |  |  |
| CN(CC1CCCCC1)c1nc2cc(C(=O)O)ccc2c2cncnc12 [Compound 4ad, 5-((cyclohexylmethyl)(methyl)amino)pyrimido[4,5-c]quinoline-8-carboxylic acid] | 2400 nM | 200 µM (≈ 70.1 µg/mL) | 229 to 231 °C |  | Inactive | 17 fold |  |  |
| CC(Nc1nc2cc(C(=O)O)ccc2c2cncnc12)c1ccccc1 (stereo not drawn) [Compound 4ae, 5-((1-phenylethyl)amino)pyrimido[4,5-c]quinoline-8-carboxylic acid] | 1900 nM | 180 µM (≈ 62 µg/mL) | 228 to 232 °C |  | Inactive |  |  |  |
| O=C(O)c1ccc2c(c1)nc(NC1CCc3ccccc31)c1ncncc12 (stereo not drawn) [Compound 4af, 5-((2,3-dihydro-1H-inden-1-yl)amino)pyrimido[4,5-c]quinoline-8-carboxylic acid] | 230 nM | 160 µM (≈ 57 µg/mL) | 270 to 273 °C | 22000 nM | Active |  |  |  |
| O=C(O)c1ccc2c(c1)nc(N[C@H]1CCc3ccccc31)c1ncncc12 [Compound 4ag, (S)-5-((2,3-dihydro-1H-inden-1-yl)amino)pyrimido[4,5-c]quinoline-8-carboxylic acid] | 300 nM |  | 252 to 255 °C |  |  |  |  |  |
| O=C(O)c1ccc2c(c1)nc(N[C@@H]1CCc3ccccc31)c1ncncc12 [Compound 4ah, (R)-5-((2,3-dihydro-1H-inden-1-yl)amino)pyrimido[4,5-c]quinoline-8-carboxylic acid] | > 10000 nM |  | 260 to 262 °C |  |  |  |  |  |
| O=C(O)c1ccc2c(c1)nc(N1CCc3ccccc3C1)c1ncncc12 [Compound 4ai, 5-(3,4-dihydroisoquinolin-2(1H)-yl)pyrimido[4,5-c]quinoline-8-carboxylic acid] | 1200 nM | 160 µM (≈ 57 µg/mL) | 204 to 208 °C |  | Inactive |  |  |  |
| O=C(O)c1ccc2c(c1)nc(NCc1cccc(Cl)c1)c1ncncc12 [Compound 4b, 5-((3-chlorobenzyl)amino)pyrimido[4,5-c]quinoline-8-carboxylic acid] | 370 nM | 150 µM (≈ 54.7 µg/mL) | 240 to 243 °C |  |  |  |  |  |
| O=C(O)c1ccc2c(c1)nc(NCc1ccc(Cl)cc1)c1ncncc12 [Compound 4c, 5-((4-chlorobenzyl)amino)pyrimido[4,5-c]quinoline-8-carboxylic acid] | 130 nM | 160 µM (≈ 58.4 µg/mL) | 203 to 205 °C | 13000 nM |  |  |  |  |
| COc1ccccc1CNc1nc2cc(C(=O)O)ccc2c2cncnc12 [Compound 4d, 5-((2-methoxybenzyl)amino)pyrimido[4,5-c]quinoline-8-carboxylic acid] | 1000 nM | 140 µM (≈ 50.5 µg/mL) | 230 to 233 °C |  |  |  |  |  |
| COc1cccc(CNc2nc3cc(C(=O)O)ccc3c3cncnc23)c1 [Compound 4e, 5-((3-methoxybenzyl)amino)pyrimido[4,5-c]quinoline-8-carboxylic acid] | 600 nM | 170 µM (≈ 61.3 µg/mL) | 210 to 214 °C |  |  |  |  |  |
| COc1ccc(CNc2nc3cc(C(=O)O)ccc3c3cncnc23)cc1 [Compound 4f, 5-((4-methoxybenzyl)amino)pyrimido[4,5-c]quinoline-8-carboxylic acid] | 280 nM | 160 µM (≈ 57.7 µg/mL) | 246 to 247 °C |  |  |  |  |  |
| O=C(O)c1ccc2c(c1)nc(NCc1ccc(F)cc1)c1ncncc12 [Compound 4g, 5-((4-fluorobenzyl)amino)pyrimido[4,5-c]quinoline-8-carboxylic acid] | 150 nM | 180 µM (≈ 62.7 µg/mL) | 235 to 238 °C | 10000 nM |  |  |  |  |

| SMILES | IC50 (CSNK2A (CSNK2A2-NLuc)) | solubility at 24 h [1] | melting point | IC50 [2] | Designation (CSNK2A (CSNK2A2-NLuc)) | fold less active on CSNK2A (CSNK2A (CSNK2A2-NLuc); compared to unmethylated parent amine 4t) | fold increase in CSNK2A potency (CSNK2A (CSNK2A2-NLuc)) | fold decrease in CSNK2A potency (CSNK2A (CSNK2A2-NLuc)) |
| --- | --- | --- | --- | --- | --- | --- | --- | --- |
| Cc1ccc(CNc2nc3cc(C(=O)O)ccc3c3cncnc23)cc1 [Compound 4h, 5-((4-methylbenzyl)amino)pyrimido[4,5-c]quinoline-8-carboxylic acid] | 340 nM | 170 µM (≈ 58.5 µg/mL) | 201 to 204 °C |  |  |  |  |  |
| O=C(O)c1ccc2c(c1)nc(NCc1ccc(C(F)F)cc1)c1ncncc12 [Compound 4i, 5-((4-(difluoromethyl)benzyl)amino)pyrimido[4,5-c]quinoline-8-carboxylic acid] | 470 nM | 150 µM (≈ 57.1 µg/mL) | 250 to 255 °C |  |  |  |  |  |
| O=C(O)c1ccc2c(c1)nc(NCc1ccc(C(F)(F)F)cc1)c1ncncc12 [Compound 4j, 5-((4-(trifluoromethyl)benzyl)amino)pyrimido[4,5-c]quinoline-8-carboxylic acid] | 640 nM | 160 µM (≈ 63.7 µg/mL) | 245 to 248 °C |  |  |  |  |  |
| N#Cc1ccc(CNc2nc3cc(C(=O)O)ccc3c3cncnc23)cc1 [Compound 4k, 5-((4-cyanobenzyl)amino)pyrimido[4,5-c]quinoline-8-carboxylic acid] | 530 nM | 160 µM (≈ 56.9 µg/mL) | 270 to 275 °C |  |  |  |  |  |
| O=C(O)c1ccc2c(c1)nc(NCc1ccc(-c3ccc(Cl)cc3)cc1)c1ncncc12 [Compound 4l, 5-(((4′-chloro-[1,1′-biphenyl]-4-yl)methyl)amino)pyrimido[4,5-c]quinoline-8-carboxylic acid] | 1900 nM | < 1 µM | 246 to 248 °C |  |  |  |  |  |
| O=C(O)c1ccc2c(c1)nc(NCc1ccc3ccccc3c1)c1ncncc12 [Compound 4m, 5-((naphthalen-2-ylmethyl)amino)pyrimido[4,5-c]quinoline-8-carboxylic acid] | 500 nM | 5 µM (≈ 1.9 µg/mL) | 250 to 253 °C |  |  |  |  |  |
| O=C(O)c1ccc2c(c1)nc(NCc1ccccn1)c1ncncc12 [Compound 4n, 5-((pyridin-2-ylmethyl)amino)pyrimido[4,5-c]quinoline-8-carboxylic acid] | 8000 nM | 140 µM (≈ 46.4 µg/mL) | 250 to 254 °C |  |  |  |  |  |
| O=C(O)c1ccc2c(c1)nc(NCc1cccnc1)c1ncncc12 [Compound 4o, 5-((pyridin-3-ylmethyl)amino)pyrimido[4,5-c]quinoline-8-carboxylic acid] | 6000 nM | 200 µM (≈ 66.3 µg/mL) | 270 to 274 °C |  |  |  |  |  |
| O=C(O)c1ccc2c(c1)nc(NCc1ccncc1)c1ncncc12 [Compound 4p, 5-((pyridin-4-ylmethyl)amino)pyrimido[4,5-c]quinoline-8-carboxylic acid] | 14000 nM | 200 µM (≈ 66.3 µg/mL) | 274 to 276 °C |  |  |  |  |  |
| CC(C)CNc1nc2cc(C(=O)O)ccc2c2cncnc12 [Compound 4q, 5-(isobutylamino)pyrimido[4,5-c]quinoline-8-carboxylic acid] | 1200 nM | 170 µM (≈ 50.4 µg/mL) | 270 to 273 °C |  |  |  |  |  |
| O=C(O)c1ccc2c(c1)nc(NCC1CCC1)c1ncncc12 [Compound 4r, 5-((cyclobutylmethyl)amino)pyrimido[4,5-c]quinoline-8-carboxylic acid] | 410 nM | 220 µM (≈ 67.8 µg/mL) | 265 to 268 °C |  |  |  | 3 fold |  |
| O=C(O)c1ccc2c(c1)nc(NCC1CCCC1)c1ncncc12 [Compound 4s, 5-((cyclopentylmethyl)amino)pyrimido[4,5-c]quinoline-8-carboxylic acid] | 320 nM | 210 µM (≈ 67.7 µg/mL) | 261 to 264 °C |  |  |  | 3 fold |  |
| CC(C)(C)CNc1nc2cc(C(=O)O)ccc2c2cncnc12 [Compound 4v, 5-(neopentylamino)pyrimido[4,5-c]quinoline-8-carboxylic acid] | 870 nM | 190 µM (≈ 59 µg/mL) | 282 to 285 °C |  |  |  |  |  |
| O=C(O)c1ccc2c(c1)nc(NCC1CCOC1)c1ncncc12 (stereo not drawn) [Compound 4y, 5-(((tetrahydrofuran-3-yl)methyl)amino)pyrimido[4,5-c]quinoline-8-carboxylic acid] | 3100 nM | 140 µM (≈ 45.4 µg/mL) | 160 to 164 °C |  |  |  |  | 10 fold |
| O=C(O)c1ccc2c(c1)nc(NCC13CCC(CC1)O3)c1ncncc12 [Compound 4z, 5-(((7-oxabicyclo[2.2.1]heptan-1-yl)methyl)amino)pyrimido[4,5-c]quinoline-8-carboxylic acid] | 1400 nM | 220 µM (≈ 77.1 µg/mL) | 280 to 284 °C |  |  |  |  | 10 fold |
